Laboratory results as given in article PMC5557891, “Time-lapse crystallography snapshots of a double-strand break repair polymerase in action” (Nature Communications, 2017).

Molecular target: T1, pol μ (truncated human wild-type DNA polymerase μ) (Homo sapiens, UniProt Q9NP87, DEL398-410)
T1 construct: gene POLM; recalled: residues about 132-494; loop2 'previously truncated to improve crystallizability' (between Pro397 and Ser411; recalled deletion Pro398-Pro410); GST fusion from pGEXM, tag cut on resin with TEV; E. coli BL21(DE3)CodonPlus-RIPL; parent model PDB 4M04
Assay: time-lapse X-ray crystallography
Format: binding
Conditions: product complex after in crystallo TTP insertion into gapped DNA; 10 mM MgCl2 (60 min, 2.02 Å) or 10 mM MnCl2; 4 °C, pH 7.5

T1 sequence (Q9NP87 with tags, fused parts or gaps DEL398-410): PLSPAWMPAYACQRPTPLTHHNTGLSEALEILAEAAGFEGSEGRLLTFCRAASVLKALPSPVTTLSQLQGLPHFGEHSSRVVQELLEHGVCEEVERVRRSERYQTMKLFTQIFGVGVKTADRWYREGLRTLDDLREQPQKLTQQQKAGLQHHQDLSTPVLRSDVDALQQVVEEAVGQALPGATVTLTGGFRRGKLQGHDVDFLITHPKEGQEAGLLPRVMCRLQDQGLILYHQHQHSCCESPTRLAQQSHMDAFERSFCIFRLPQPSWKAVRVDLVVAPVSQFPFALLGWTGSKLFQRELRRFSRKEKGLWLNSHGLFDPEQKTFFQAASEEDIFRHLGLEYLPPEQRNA

O=P(O)(O)OP(=O)(O)O [PPi]
time-lapse X-ray crystallography: The position of Pβ of the PPi product is identical to that expected after bond cleavage
